# Experimental data as given in US20260285850A1, “SUBSTITUTED OXAZOLIDINONES AND IMIDAZOLINONES AS HERBICIDES” (FMC CORPORATION, priority 2023, published 2026).
# Columns and labels:
# Format in all cases: in vivo
# [1] = tested on: barnyardgrass (Echinochloa crus-galli); experiment: Test A preemergence soil spray, visual injury rating 0-100; conditions: 10 days
# Method in brief: (§1)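 Plants in a loam and sand soil blend were treated with each test chemical, in a non-phytotoxic solvent system including surfactant, either sprayed on seeded soil before emergence or applied after emergence at the one- to two-leaf stage. Ten days later in the greenhouse, plants were compared with untreated controls and visually rated from 0 (no effect) to 100 (complete control).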
# [2] = tested on: blackgrass (Alopecurus myosuroides); experiment: as above; conditions: 10 days
# Method in brief: as §1
# corn (Zea mays) [3] = experiment: as above; conditions: 10 days
# Method in brief: as §1
# [4] = tested on: green foxtail (Setaria viridis); experiment: as above; conditions: 10 days
# Method in brief: as §1
# kochia (Bassia scoparia) [5] = experiment: as above; conditions: 10 days
# Method in brief: as §1
# [6] = tested on: oat, wild (wild oat, Avena fatua); experiment: as above; conditions: 10 days
# Method in brief: as §1
# [7] = tested on: palmer (palmer amaranth, palmer pigweed, Amaranthus palmeri); experiment: as above; conditions: 10 days
# Method in brief: as §1
# [8] = tested on: ragweed (common ragweed, Ambrosia artemisiifolia); experiment: as above; conditions: 10 days
# Method in brief: as §1
# [9] = tested on: ryegrass, Italian (italian ryegrass, Lolium multiflorum); experiment: as above; conditions: 10 days
# Method in brief: as §1
# soybean (Glycine max) [10] = experiment: as above; conditions: 10 days
# Method in brief: as §1
# [11] = tested on: wheat (Triticum aestivum); experiment: as above; conditions: 10 days
# Method in brief: as §1
# [12] = tested on: barnyardgrass (Echinochloa crus-galli); experiment: Test A postemergence application, visual injury rating 0-100
# Method in brief: as §1
# [13] = tested on: blackgrass (Alopecurus myosuroides); experiment: as above
# Method in brief: as §1
# corn (Zea mays) [14] = experiment: as above
# Method in brief: as §1
# [15] = tested on: galium (catchweed bedstraw, Galium aparine); experiment: as above
# Method in brief: as §1
# [16] = tested on: green foxtail (Setaria viridis); experiment: as above
# Method in brief: as §1
# [17] = tested on: horseweed (Erigeron canadensis); experiment: as above
# Method in brief: as §1
# kochia (Bassia scoparia) [18] = experiment: as above
# Method in brief: as §1
# [19] = tested on: oat, wild (wild oat, Avena fatua); experiment: as above
# Method in brief: as §1
# [20] = tested on: palmer (palmer amaranth, palmer pigweed, Amaranthus palmeri); experiment: as above
# Method in brief: as §1
# [21] = tested on: ragweed (common ragweed, Ambrosia artemisiifolia); experiment: as above
# Method in brief: as §1
# [22] = tested on: ryegrass, Italian (italian ryegrass, Lolium multiflorum); experiment: as above
# Method in brief: as §1
# soybean (Glycine max) [23] = experiment: as above
# Method in brief: as §1
# [24] = tested on: wheat (Triticum aestivum); experiment: as above
# Method in brief: as §1
# [25] = tested on: barnyardgrass (Echinochloa crusgalli); experiment: Test B flooded paddy test, visual plant response rating 0-100; conditions: 250 g ai/ha, Flood, applied to paddy water, evaluated after 13 days
# Method in brief: (§2)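 Paddy-water application: test compounds went directly into water flooded 3 cm above the soil surface, with plants at 2 leaves. After a 13-day greenhouse period, responses were judged by eye relative to controls; a dash marks an untested entry.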
# [26] = tested on: ducksalad (Heteranthera limosa); experiment: as above; conditions: 250 g ai/ha, Flood, applied to paddy water, evaluated after 13 days
# Method in brief: as §2
# rice (Oryza sativa) = experiment: as above; conditions: 250 g ai/ha, Flood, applied to paddy water, evaluated after 13 days
# Method in brief: as §2
# [27] = tested on: sedge, umbrella (small-flower umbrella sedge, Cyperus difformis); experiment: as above; conditions: 250 g ai/ha, Flood, applied to paddy water, evaluated after 13 days
# Method in brief: as §2
# [28] = 62 g ai/ha, 0 = no effect, 100 = complete control
# [29] = 62 g ai/ha, postemergence, 10 days, 0 = no effect, 100 = complete control
# [30] = Postemergence, 16 g ai/ha, greenhouse 10 days, 0 no effect, 100 complete control
structure (smiles),measurement,setting,value
CC1(C(=O)NC2CC=C(C(=O)NS(=O)(=O)C(C)(C)C)C2)CN(c2cc(F)cc(F)c2)C(=O)O1 (racemic) [Compound 91],Barnyardgrass plant response rating,"[1]; 16 g ai/ha, 0 to 100 scale",0
same,Barnyardgrass plant response rating (0-100),[1]; [28],10
same,Blackgrass plant response rating,"[2]; 16 g ai/ha, 0 to 100 scale",0
same,Blackgrass plant response rating (0-100),[2]; [28],0
same,Corn plant response rating,"corn (Zea mays) [3]; 16 g ai/ha, 0 to 100 scale",0
same,Corn plant response rating (0-100),corn (Zea mays) [3]; [28],0
same,"Foxtail, Green plant response rating","[4]; 16 g ai/ha, 0 to 100 scale",0
same,"Foxtail, Green plant response rating (0-100)",[4]; [28],0
same,Kochia plant response rating,"kochia (Bassia scoparia) [5]; 16 g ai/ha, 0 to 100 scale",0
same,Kochia plant response rating (0-100),kochia (Bassia scoparia) [5]; [28],0
same,"Oat, Wild plant response rating","[6]; 16 g ai/ha, 0 to 100 scale",0
same,"Oat, Wild plant response rating (0-100)",[6]; [28],0
same,"Pigweed, Palmer plant response rating","[7]; 16 g ai/ha, 0 to 100 scale",0
same,"Pigweed, Palmer plant response rating (0-100)",[7]; [28],0
same,Ragweed plant response rating,"[8]; 16 g ai/ha, 0 to 100 scale",0
same,Ragweed plant response rating (0-100),[8]; [28],0
same,"Ryegrass, Italian plant response rating","[9]; 16 g ai/ha, 0 to 100 scale",0
same,"Ryegrass, Italian plant response rating (0-100)",[9]; [28],0
same,Soybean plant response rating,"soybean (Glycine max) [10]; 16 g ai/ha, 0 to 100 scale",0
same,Soybean plant response rating (0-100),soybean (Glycine max) [10]; [28],0
same,Wheat plant response rating,"[11]; 16 g ai/ha, 0 to 100 scale",0
same,Wheat plant response rating (0-100),[11]; [28],0
same,Barnyardgrass plant response rating (0-100),[12]; [29],40
same,Barnyardgrass plant response rating (0 to 100 scale),[12]; [30],0
same,Blackgrass plant response rating (0-100),[13]; [29],10
same,Blackgrass plant response rating (0 to 100 scale),[13]; [30],0
same,Corn plant response rating (0-100),corn (Zea mays) [14]; [29],30
same,Corn plant response rating (0 to 100 scale),corn (Zea mays) [14]; [30],0
same,Galium plant response rating (0-100),[15]; [29],10
same,Galium plant response rating (0 to 100 scale),[15]; [30],0
same,"Foxtail, Green plant response rating (0-100)",[16]; [29],20
same,"Foxtail, Green plant response rating (0 to 100 scale)",[16]; [30],0
same,Horseweed plant response rating (0-100),[17]; [29],0
same,Horseweed plant response rating (0 to 100 scale),[17]; [30],10
same,Kochia plant response rating (0-100),kochia (Bassia scoparia) [18]; [29],40
same,Kochia plant response rating (0 to 100 scale),kochia (Bassia scoparia) [18]; [30],0
same,"Oat, Wild plant response rating (0-100)",[19]; [29],20
same,"Oat, Wild plant response rating (0 to 100 scale)",[19]; [30],0
same,"Pigweed, Palmer plant response rating (0-100)",[20]; [29],50
same,"Pigweed, Palmer plant response rating (0 to 100 scale)",[20]; [30],0
same,Ragweed plant response rating (0-100),[21]; [29],20
same,Ragweed plant response rating (0 to 100 scale),[21]; [30],0
same,"Ryegrass, Italian plant response rating (0-100)",[22]; [29],40
same,"Ryegrass, Italian plant response rating (0 to 100 scale)",[22]; [30],0
same,Soybean plant response rating (0-100),soybean (Glycine max) [23]; [29],30
same,Soybean plant response rating (0 to 100 scale),soybean (Glycine max) [23]; [30],0
same,Wheat plant response rating (0-100),[24]; [29],50
same,Wheat plant response rating (0 to 100 scale),[24]; [30],0
same,"Plant response rating, Barnyardgrass (0 to 100 scale, 0 is no effect and 100 is complete control)",[25],0
same,"Plant response rating, Ducksalad (0 to 100 scale, 0 is no effect and 100 is complete control)",[26],0
same,"Plant response rating, Rice (0 to 100 scale, 0 is no effect and 100 is complete control)",rice (Oryza sativa),0
same,"Plant response rating, Sedge, Umbrella (0 to 100 scale, 0 is no effect and 100 is complete control)",[27],0
